Structures can show the parent of a compound that is named as a salt.
target: T1, human PTH1 receptor (Homo sapiens, UniProt Q03431); test: In vitro cAMP signal activity in HKRK-B7 cells (LLC-PK1 cells overexpressing the human PTH1 receptor); assay type: cell-based; conditions: HKRK-B7 cells; compound at 1×10^−3 M; […]; 0.1 µM
T1 sequence (Q03431 27-593): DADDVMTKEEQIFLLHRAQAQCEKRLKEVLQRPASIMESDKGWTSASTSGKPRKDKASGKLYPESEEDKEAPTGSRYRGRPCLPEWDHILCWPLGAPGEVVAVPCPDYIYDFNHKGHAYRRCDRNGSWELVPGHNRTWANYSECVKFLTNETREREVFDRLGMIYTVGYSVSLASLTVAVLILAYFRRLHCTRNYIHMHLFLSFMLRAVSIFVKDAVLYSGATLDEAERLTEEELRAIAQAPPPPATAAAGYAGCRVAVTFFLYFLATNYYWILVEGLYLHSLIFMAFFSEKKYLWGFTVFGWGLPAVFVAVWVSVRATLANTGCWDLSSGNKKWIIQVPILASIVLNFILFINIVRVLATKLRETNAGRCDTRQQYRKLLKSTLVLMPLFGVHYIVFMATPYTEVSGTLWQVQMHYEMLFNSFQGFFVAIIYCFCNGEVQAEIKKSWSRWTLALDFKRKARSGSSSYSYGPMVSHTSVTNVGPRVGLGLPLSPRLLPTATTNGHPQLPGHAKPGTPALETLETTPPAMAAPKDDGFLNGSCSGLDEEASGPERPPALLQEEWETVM

Structure (SMILES) | cAMP production activity (%)
Cc1cc(C(=O)N2CCNCC2)cc(C)c1/C=C/S(=O)(=O)N1CCC2(CC1)N=C(c1cccc(OC(F)(F)F)c1)NC2=O [Compound 446, 8-{(E)-2-[2,6-dimethyl-4-(piperazine-1-carbonyl)-phenyl]-ethenesulfonyl}-2-(3-trifluoromethoxy-phenyl)-1,3,8-triaza-spiro[4.5]dec-1-en-4-one hydrochloride] | 49

same assay, conditions: HKRK-B7 cells; compound at 1×10^−3 M; cAMP produced as percentage of that produced by hPTH(1-34) at 100 nM

Structure (SMILES) | cAMP production activity (%)
Cc1cc(C(=O)N2CCC(O)(C(F)(F)F)CC2)cc(C)c1/C=C/S(=O)(=O)N1CCC2(CC1)N=C(C1CCCCC1)NC2=O [Compound 1006, 2-Cyclohexyl-8-{(E)-2-[4-(4-hydroxy-4-trifluoromethyl-piperidine-1-carbonyl)-2,6-dimethyl-phenyl]-ethenesulfonyl}-1,3,8-triaza-spiro[4.5]dec-1-en-4-one] | 52
Cc1cc(C(=O)N2CCN(C(C)C)CC2)ccc1CCS(=O)(=O)N1CCC2(CC1)N=C(c1cccc(C(F)(F)F)c1)NC2=O [Compound 376, 8-{2-[4-(4-isopropyl-piperazine-1-carbonyl)-2-methyl-phenyl]-ethanesulfonyl}-2-(3-trifluoromethyl-phenyl)-1,3,8-triaza-spiro[4.5]dec-1-en-4-one] | 74
CCCCCCCCCC1=NC2(CCN(S(=O)(=O)CCc3ccc(N4CCOCC4=O)cc3C)CC2)C(=O)N1 [Compound 657, 8-{2-[2-Methyl-4-(3-oxo-morpholin-4-yl)-phenyl]-ethanesulfonyl}-2-nonyl-1,3,8-triaza-spiro[4.5]dec-1-en-4-one] | 124
Cc1cc(CC(N)=O)ccc1/C=C/S(=O)(=O)N1CCC2(CC1)N=C(C1CCC(C)CC1)NC2=O (centres unmarked) [Compound 737, 2-(3-Methyl-4-{(E)-2-[2-(4-methyl-cyclohexyl)-4-oxo-1,3,8-triaza-spiro[4.5]dec-1-ene-8-sulfonyl]-vinyl}-phenyl)-acetamide] | 96
Cc1cc(C(=O)N2CCC(O)(CF)CC2)cc(C)c1/C=C/S(=O)(=O)N1CCC2(CC1)N=C(c1ccc(OCC(F)(F)C(F)F)c(C(F)(F)F)c1)NC2=O [Compound 1251, 8-{(E)-2-[4-(4-fluoromethyl-4-hydroxy-piperidine-1-carbonyl)-2,6-dimethyl-phenyl]-ethenesulfonyl}-2-[4-(2,2,3,3-tetrafluoro-propoxy)-3-trifluoromethyl-phenyl]-1,3,8-triaza-spiro[4.5]dec-1-en-4-one] | 56
Cc1cc(N(C)C(N)=O)cc(C)c1/C=C/S(=O)(=O)N1CCC2(CC1)N=C(CCCCCc1ccccc1)NC2=O.O=C(O)C(F)(F)F [Compound 1133, 1-(3,5-Dimethyl-4-{(E)-2-[4-oxo-2-(5-phenyl-pentyl)-1,3,8-triaza-spiro[4.5]dec-1-ene-8-sulfonyl]-vinyl}-phenyl)-1-methyl-urea trifluoroacetate] | 113
Cc1cc(N(C2CCOCC2)S(C)(=O)=O)cc(C)c1/C=C/S(=O)(=O)N1CCC2(CC1)N=C(c1cccc(OC(F)(F)F)c1)NC2=O [Compound 534, N-(3,5-dimethyl-4-{(E)-2-[4-oxo-2-(3-trifluoromethoxy-phenyl)-1,3,8-triaza-spiro[4.5]dec-1-ene-8-sulfonyl]-vinyl}-phenyl)-N-(tetrahydro-pyran-4-yl)-methane sulfonamide] | 39
CC(=O)Nc1ccc(CCS(=O)(=O)N2CCC3(CC2)N=C(C2CCC(COC(C)C)CC2)NC3=O)c(C)c1 (centres unmarked) [Compound 913, N-(4-{2-[2-(4-isopropoxymethyl-cyclohexyl)-4-oxo-1,3,8-triaza-spiro[4.5]dec-1-ene-8-sulfonyl]-ethyl}-3-methyl-phenyl)-acetamide] | 81
Cc1cc(N2C(=O)CC[C@@H]2CO)cc(C)c1/C=C/S(=O)(=O)N1CCC2(CC1)N=C(c1cccc(OC(F)(F)F)c1)NC2=O [Compound 258, 8-{(E)-2-[4-((R)-2-hydroxymethyl-5-oxo-pyrrolidin-1-yl)-2,6-dimethyl-phenyl]-ethenesulfonyl}-2-(3-trifluoromethoxy-phenyl)-1,3,8-triaza-spiro[4.5]dec-1-en-4-one] | 87
CC(=O)Nc1ccc(CCS(=O)(=O)N2CCC3(CC2)N=C(C2CCCCC2)NC3=O)c(C#N)c1 [Compound 652, N-{3-cyano-4-[2-(2-cyclohexyl-4-oxo-1,3,8-triaza-spiro[4.5]dec-1-ene-8-sulfonyl)-ethyl]-phenyl}-acetamide] | 63
CCC1CCC(C2=NC3(CCN(S(=O)(=O)CCc4ccc(C(=O)N5CCN(C6COC6)CC5)cc4C)CC3)C(=O)N2)CC1 (centres unmarked) [Compound 976, 2-(4-ethyl-cyclohexyl)-8-{2-[2-methyl-4-(4-oxetan-3-yl-piperazine-1-carbonyl)-phenyl]-ethanesulfonyl}-1,3,8-triaza-spiro[4.5]dec-1-en-4-one] | 73
Cc1cc(C(=O)N(C)C)ccc1CCS(=O)(=O)N1CCC2(CC1)N=C(COc1ccc(Cl)cc1)NC2=O [Compound 124, 4-{2-[2-(4-chloro-phenoxymethyl)-4-oxo-1,3,8-triaza-spiro[4.5]dec-1-ene-8-sulfonyl]-ethyl}-3,N,N-trimethyl-benzamide] | 64
Cc1cc(C(=O)N2CCN(CCCO)CC2)ccc1CCS(=O)(=O)N1CCC2(CC1)N=C(c1cccc(C(F)(F)F)c1)NC2=O [Compound 366, 8-(2-{4-[4-(3-hydroxy-propyl)-piperazine-1-carbonyl]-2-methyl-phenyl}-ethanesulfonyl)-2-(3-trifluoromethyl-phenyl)-1,3,8-triaza-spiro[4.5]dec-1-en-4-one] | 85
Cc1cc(C(=O)N2CCN(C)CC2)ccc1/C=C/S(=O)(=O)N1CCC2(CC1)N=C(c1cccc(C(F)(F)F)c1)NC2=O [Compound 216, 8-{(E)-2-[2-methyl-4-(4-methyl-piperazine-1-carbonyl)-phenyl]-ethenesulfonyl}-2-(3-trifluoromethyl-phenyl)-1,3,8-triaza-spiro[4.5]dec-1-en-4-one] | 84
C=CCCCCCCCC(=O)N(C)c1cc(C)c(CCS(=O)(=O)N2CCC3(CC2)N=C(CCCCC=C)NC3=O)c(C)c1 [Compound 1443, dec-9-enoic acid {4-[2-(2-hex-5-enyl-4-oxo-1,3,8-triaza-spiro[4.5]dec-1-ene-8-sulfonyl)-ethyl]-3,5-dimethyl-phenyl}-methyl-amide] | 61
O=C1NC(c2cccc(OC(F)(F)F)c2)=NC12CCN(S(=O)(=O)CCc1cc(F)c(OCCC(O)CO)c(F)c1)CC2 (centres unmarked) [Compound 860, 8-{2-[4-(3,4-dihydroxy-butoxy)-3,5-difluoro-phenyl]-ethanesulfonyl}-2-(3-trifluoromethoxy-phenyl)-1,3,8-triaza-spiro[4.5]dec-1-en-4-one] | 50
CC(=O)Nc1ccc(CCS(=O)(=O)N2CCC3(CC2)N=C(C2CCC(C)(C)CC2)NC3=O)c(C)c1 [Compound 925, N-(4-{2-[2-(4,4-dimethyl-cyclohexyl)-4-oxo-1,3,8-triaza-spiro[4.5]dec-1-ene-8-sulfonyl]-ethyl}-3-methyl-phenyl)-acetamide] | 69
COCCC1CCC(C2=NC3(CCN(S(=O)(=O)CCc4ccc(NC(C)=O)cc4C)CC3)C(=O)N2)CC1 (centres unmarked) [Compound 927, N-[4-(2-{2-[4-(2-Methoxy-ethyl)-cyclohexyl]-4-oxo-1,3,8-triaza-spiro[4.5]dec-1-ene-8-sulfonyl}-ethyl)-3-methyl-phenyl]-acetamide] | 80
Cc1cc(C(=O)N2CCC(O)CC2)cc(C)c1/C=C/S(=O)(=O)N1CCC2(CC1)N=C(c1cccc(C(F)(F)F)c1)NC2=O [Compound 384, 8-{(E)-2-[4-(4-hydroxy-piperidine-1-carbonyl)-2,6-dimethyl-phenyl]-ethenesulfonyl}-2-(3-trifluoromethyl-phenyl)-1,3,8-triaza-spiro[4.5]dec-1-en-4-one] | 61
Cc1cc(N2C(=O)NC(C)(C)C2=O)cc(C)c1/C=C/S(=O)(=O)N1CCC2(CC1)N=C(c1cccc(OC(F)(F)F)c1)NC2=O [Compound 615, 3-(3,5-dimethyl-4-{(E)-2-[4-oxo-2-(3-trifluoromethoxy-phenyl)-1,3,8-triaza-spiro[4.5]dec-1-ene-8-sulfonyl]-vinyl}-phenyl)-5,5-dimethyl-imidazolidine-2,4-dione] | 46
CN(C)C(=O)Nc1ccc(/C=C/S(=O)(=O)N2CCC3(CC2)N=C(C2CCCCC2)NC3=O)c(C(F)(F)F)c1 [Compound 194, 3-{4-[(E)-2-(2-cyclohexyl-4-oxo-1,3,8-triaza-spiro[4.5]dec-1-ene-8-sulfonyl)-vinyl]-3-trifluoromethyl-phenyl}-1,1-dimethyl-urea] | 56
CC(=O)Nc1ccc(CCS(=O)(=O)N2CCC3(CC2)N=C([C@H]2CC[C@H](CC=C(F)F)CC2)NC3=O)c(C)c1 [Compound 1067, N-[4-(2-{2-[4-(3,3-difluoro-allyl)-cyclohexyl]-4-oxo-1,3,8-triaza-spiro[4.5]dec-1-ene-8-sulfonyl}-ethyl)-3-methyl-phenyl]-acetamide] | 69

— patent publication US9169254B2, “Spiroimidazolone derivative” (Chugai Seiyaku Kabushiki Kaisha, priority 2009, dated 2015)
